Experimental data from US11590109B2 (priority 2016, dated 2023).

Key:
[1] = test system: JEV (Japanese encephalitis virus); assay: Inhibition of viral replication (CPE) at cellular level, JEV in Vero; conditions: for SI (TC50/IC50): JEV in host cell Vero; for IC50: Japanese encephalitis virus, Vero
[2] = test system: H7N9 (influenza virus); conditions: H7N9 in host cell MDCK
[3] = test system: H3N2 (influenza virus); assay: microbe, parasite or virus in culture; conditions: Influenza A virus, H3N2, MDCK
[4] = test system: H7N9 (influenza virus); assay: microbe, parasite or virus in culture; conditions: Influenza A virus, H7N9, MDCK
[5] = test system: H1N1 (influenza virus); assay: microbe, parasite or virus in culture; conditions: Influenza A virus, H1N1, MDCK
[6] = in vitro; conditions: dog, TC50
[7] = in vitro; conditions: African green monkey
[8] = test system: H3N2 (influenza virus); conditions: H3N2 in host cell MDCK
[9] = test system: RSV (human respiratory syncytial virus); assay: Inhibition of viral replication (CPE) at cellular level, RSV in Vero; conditions: for SI (TC50/IC50): RSV in host cell Vero; for IC50: human respiratory syncytial virus, Vero
[10] = test system: EV71 (hand-foot-and-mouth virus); assay: microbe, parasite or virus in culture; conditions: Enterovirus A
[11] = test system: Zika Virus; assay: Inhibition of viral replication (CPE) at cellular level, Zika Virus in Vero; conditions: for SI (TC50/IC50): Zika Virus in host cell Vero; for IC50: Zika virus, Vero
[12] = test system: H1N1 (influenza virus); conditions: H1N1 in host cell MDCK
[13] = test system: Dengue Virus 2 (type 2 dengue virus); assay: Inhibition of viral replication (CPE) at cellular level, Dengue Virus 2 in Vero; format: cell-based; conditions: Dengue Virus 2 in host cell Vero; for IC50: CPE
From the text: Activity Test for Inhibition of Viral Replication at Cellular Level […]
The present inventors tested inhibitory effects of the compound of the present invention on cytopathic effects (CPE) caused by viral infection on mammalian cells.
Half-inhibitory concentration IC50 and half toxic concentration TC50 of the compound against Dengue Virus 2 (type 2 dengue virus) in host cell Vero (African green monkey kidney cell).

[14] = Determination of TC50 (half toxicity concentration) in RD cells; format: cell-based; conditions: human, host cell RD, EV71 table
[15] = test system: EV71 (hand-foot-and-mouth virus); conditions: EV71 in host cell RD
[16] = TC50, host cell Vero, Dengue Virus 2 table
[17] = TC50, host cell Vero, RSV table
[18] = TC50, host cell Vero, Zika Virus table

SMILES | SI (TC50/IC50) [1] | IC50 [1] | SI (TC50/IC50) [2] | IC50 [3] | IC50 [4] | IC50 [5] | CC50 [7] | CC50 [7, 16] | CC50 [7, 17] | CC50 [7, 18] | SI (TC50/IC50) [8] | SI (TC50/IC50) [9] | IC50 [9] | IC50 [10] | SI (TC50/IC50) [11] | IC50 [11] | SI (TC50/IC50) [12] | SI (TC50/IC50) [13] | IC50 [13] | CC50 [14] | other results
O=C(O)c1cc(C(F)(F)F)ccc1/C=N/Nc1nc(-c2ccccc2Cl)cs1 [Compound 8-1] | 156 | 230 nM | 117 | 250 nM | 860 nM | 890 nM | 36000 nM | 65000 nM | 123000 nM | 66000 nM | 456 | 14 | 8890 nM | 190 nM | 264 | 250 nM | 138 | 325 | 200 nM | 2000 nM | CC50 [6]: 114000 nM; SI (TC50/IC50) [15]: 10.5
Cc1sc(N/N=C/c2ccccc2C(=O)O)nc1-c1ccccc1 [Compound 12-1] | 138.7 | 310 nM | 108 | 520 nM | 2300 nM | 910 nM | 43000 nM | 23000 nM | 39000 nM | 33000 nM | 246 | 5.6 | 6910 nM | 390 nM | 110 | 300 nM | 362 | 59 | 390 nM | 2000 nM | SI (TC50/IC50) [15]: 5
O=C(O)c1cc(F)ccc1/C=N/Nc1nc(-c2ccccc2Cl)cs1 [Compound 10-1] | 306 | 160 nM | 516 | 310 nM | 490 nM | 390 nM | 49000 nM | 45000 nM | 50000 nM | 89000 nM | 313 | 6.8 | 7390 nM | 180 nM | 523 | 170 nM | 615 | 300 | 150 nM | 1000 nM | SI (TC50/IC50) [15]: 5.6
Cc1ccc(/C=N/N(C)c2nc(-c3ccccc3Cl)cs2)c(C(=O)O)c1 [Compound 9, (E)-4-(2-chlorophenyl)-2-[1-methyl-2-(4-methyl-2-carboxybenzylidene)hydrazino]thiazole] | 73.3 | 150 nM | 83 | 190 nM | 530 nM | 270 nM | 11000 nM | 18000 nM | 35000 nM | 15000 nM | 137 | 15 | 2270 nM | 120 nM | 100 | 150 nM | 240 | 106 | 170 nM | 1000 nM | SI (TC50/IC50) [15]: 8.3
CN(/N=C/c1ccc(C(F)(F)F)cc1C(=O)O)c1nc(-c2ccccc2Cl)cs1 [Compound 8, (E)-4-(2-chlorophenyl)-2-[1-methyl-2-(4-trifluoromethyl-2-carboxybenzylidene)hydrazino]thiazole] | 170 | 100 nM | 66 | 210 nM | 590 nM | 630 nM | 17000 nM | 19000 nM | 31000 nM | 19000 nM | 233 | 5.5 | 5630 nM | 90 nM | 158 | 120 nM | 49 | 211 | 90 nM | 1000 nM | CC50 [6]: 49000 nM; SI (TC50/IC50) [15]: 11
O=C(O)c1cc(F)c(F)cc1/C=N/Nc1nc(-c2ccccc2Cl)cs1 [Compound 23-1] | 124 | 290 nM | 152 | 260 nM | 670 nM | 670 nM | 36000 nM | 78000 nM | 101000 nM | 76000 nM | 477 | 19 | 5670 nM | 370 nM | 262 | 290 nM | 300 | 200 | 390 nM | 2000 nM | CC50 [6]: 124000 nM; SI (TC50/IC50) [15]: 5.4
